# Legend:
# [1] = Antioxidant assay: DPPH radical-scavenging activity; settings: DPPH method; regression using five concentrations (500, 200, 100, 50, 25 μM); 517 nm, 40 min at 30 °C
# Protocol: DPPH radical-scavenging activity of the sample was measured as previously described with minor modifications. In a 96-well microplate, 150 μL of DPPH solution (200 μM) was added to 50 μL of the test sample in methanol at different concentrations. The OD values of the reaction mixtures was recorded at 517 nm using a Multiskan Go (Thermo Fisher Scientific, Inc., Waltham, MA, USA) for 40 min at 30 °C. The DPPH radical scavenging activity was calculated by the following equation: DPPH scavenging activity % = […], where Asample represents the absorbance of sample and DPPH, Ablank represents the absorbance of sample and CH3OH, Acontrol represents the absorbance of DPPH and CH3OH. […] L-ascorbic acid was used as the positive control in this experiment. All tests were run in triplicate, and values obtained from experiments were averaged.
# ovine COX-1 = target: T1, ovine COX-1 (Ovis aries, UniProt P05979)
# T1 sequence (P05979 25-600): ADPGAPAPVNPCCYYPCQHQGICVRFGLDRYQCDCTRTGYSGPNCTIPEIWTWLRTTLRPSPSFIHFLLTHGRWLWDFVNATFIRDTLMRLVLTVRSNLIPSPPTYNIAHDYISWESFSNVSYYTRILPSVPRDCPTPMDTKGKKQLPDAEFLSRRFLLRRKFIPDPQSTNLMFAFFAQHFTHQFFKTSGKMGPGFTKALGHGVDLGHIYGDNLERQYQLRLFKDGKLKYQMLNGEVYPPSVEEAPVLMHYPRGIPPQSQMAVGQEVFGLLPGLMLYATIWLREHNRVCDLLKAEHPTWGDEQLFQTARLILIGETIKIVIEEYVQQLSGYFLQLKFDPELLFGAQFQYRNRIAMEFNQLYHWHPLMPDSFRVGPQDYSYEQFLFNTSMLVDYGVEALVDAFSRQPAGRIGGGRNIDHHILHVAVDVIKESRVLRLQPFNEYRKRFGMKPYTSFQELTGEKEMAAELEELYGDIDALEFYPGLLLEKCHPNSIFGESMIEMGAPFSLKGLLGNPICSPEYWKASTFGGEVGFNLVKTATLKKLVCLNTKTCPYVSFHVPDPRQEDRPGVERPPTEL
# Excerpt: (§1) 2,2-Di-phenyl-1-picrylhydrazyl (DPPH) (Sigma Corporation, Ronkonkoma, New York, NY, USA), L-cysteine methyl ester and o-tolyl isothiocyanate (Meilun Biotech. Co. Ltd., Dalian, China), D-glucose, and L-glucose (Energy Chemical, Shanghai, China) were used. COX inhibitor screening assay kit was purchased from Cayman Chemical Company (Ann Arbor, MI, USA).
# ovine COX-2 = target: T2, ovine COX-2 (Ovis aries, UniProt P79208)
# T2 sequence (P79208 17-603): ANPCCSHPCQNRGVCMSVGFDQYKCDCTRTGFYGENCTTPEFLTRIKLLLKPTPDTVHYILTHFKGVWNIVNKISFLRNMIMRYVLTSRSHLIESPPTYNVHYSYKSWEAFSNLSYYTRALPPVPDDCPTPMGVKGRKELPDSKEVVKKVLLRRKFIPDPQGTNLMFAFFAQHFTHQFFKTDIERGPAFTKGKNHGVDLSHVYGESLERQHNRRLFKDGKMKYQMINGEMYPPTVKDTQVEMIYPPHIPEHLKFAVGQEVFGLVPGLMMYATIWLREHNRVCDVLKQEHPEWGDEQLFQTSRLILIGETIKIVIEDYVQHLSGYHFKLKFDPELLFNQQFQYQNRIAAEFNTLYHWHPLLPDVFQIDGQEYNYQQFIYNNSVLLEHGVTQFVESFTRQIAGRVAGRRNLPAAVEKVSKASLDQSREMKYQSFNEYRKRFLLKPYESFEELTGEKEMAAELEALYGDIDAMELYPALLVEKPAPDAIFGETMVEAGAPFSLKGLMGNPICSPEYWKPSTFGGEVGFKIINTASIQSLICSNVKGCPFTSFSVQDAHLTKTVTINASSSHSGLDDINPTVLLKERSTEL
# Excerpt: as §1
SMILES,IC50 [1] [µM],IC50 (ovine COX-1) [µM],IC50 (ovine COX-2) [µM]
"OC[C@H]1O[C@@H](OCCc2ccccc2)[C@H](O)[C@@H](O)[C@@H]1O [Compound 4, phenethyl-O-β-D-glucopyranoside]",282 ± 5.2,15.5 ± 0.6,38.2 ± 3.9
"C[C@@H]1O[C@@H](OC[C@H]2O[C@@H](OCCc3ccccc3)[C@H](O)[C@@H](O)[C@@H]2O)[C@H](O)[C@H](O)[C@H]1O [Compound 6, phenethyl-O-rutinoside]",275 ± 14.8,41.2 ± 1.5,35.4 ± 1.6

# Stronger by IC50 [1], values ahead:
IC50 [1] [µM],IC50 (ovine COX-1) [µM],IC50 (ovine COX-2) [µM],SMILES
257 ± 13.8,38.4 ± 1.3,31.7 ± 2.9,"OC[C@H]1O[C@@H](OC[C@H]2O[C@@H](OCCc3ccccc3)[C@H](O)[C@@H](O)[C@@H]2O)[C@H](O)[C@@H](O)[C@@H]1O [Compound 5, phenethanol-β-D-gentiobioside]"
83.2 ± 3,21.6 ± 1.2,45.4 ± 3.3,"COc1cc(O[C@@H]2O[C@H](CO)[C@@H](O)[C@H](O)[C@H]2O)cc2c1C(=O)C[C@@H](c1ccc(O)cc1)O2 [Compound 1, hostaflavanone A]"
33.9 ± 1.1,,,"O=C1O[C@H]([C@@H](O)CO)C(O)=C1O [L-ascorbic acid, reference compound]"

# Reference: article PMC6150378, “Chemical Constituents from the Flower of Hosta plantaginea with Cyclooxygenases Inhibition and Antioxidant Activities and Their Chemotaxonomic Significance” (Molecules : A Journal of Synthetic Chemistry and Natural …, 2017)
